Consider 25 compounds from US10189782B2, “Derivatives of indole for the treatment of cancer, viral infections and lung diseases” (BIOKINESIS, priority 2012, dated 2019).

Each structure is given as a SMILES string. Structures can show the parent of a compound that is named as a salt. Where two headings read alike, the source gives them in different places.

Test [1] concerns the target T1, Human recombinant MKlp2 motor domain1-519, His tagged (Homo sapiens, UniProt O95235).
T1 construct: Human recombinant MKlp2 motor domain1-519, His tagged; His; purchased Cytoskeleton MP05
T1 sequence (O95235 1-519): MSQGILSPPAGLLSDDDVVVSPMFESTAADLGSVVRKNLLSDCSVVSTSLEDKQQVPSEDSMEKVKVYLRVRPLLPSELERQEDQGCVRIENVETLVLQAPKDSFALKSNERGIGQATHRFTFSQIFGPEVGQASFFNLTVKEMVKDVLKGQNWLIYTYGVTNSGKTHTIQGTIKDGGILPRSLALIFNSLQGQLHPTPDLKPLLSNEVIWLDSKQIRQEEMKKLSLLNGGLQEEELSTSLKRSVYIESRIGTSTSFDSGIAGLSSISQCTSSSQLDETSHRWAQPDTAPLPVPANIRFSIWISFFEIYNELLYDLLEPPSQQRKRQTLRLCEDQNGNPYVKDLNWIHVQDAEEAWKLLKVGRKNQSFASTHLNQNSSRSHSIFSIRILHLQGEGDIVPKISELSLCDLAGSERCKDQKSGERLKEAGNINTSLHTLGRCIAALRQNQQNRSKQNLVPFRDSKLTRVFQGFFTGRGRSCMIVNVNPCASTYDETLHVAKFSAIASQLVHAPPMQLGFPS
The test is described as follows: Microtubule stimulated ATPase activity of the MKlp2 motor domain (Kinesin ELIPA Assay Kit). The class given is biochemical. As for the experimental part:
Evaluation of Inhibitory Effects on the Microtubule Stimulated ATPase Activity of the MKlp2 Motor Domain.
MKlp2 ATPase activity was measured by monitoring real time free phosphate generation using the Kinesin ELIPA Assay Kit. The assay is based upon an absorbance shift (330 nm-360 nm) that occurs when 2-amino-6-mercapto-7-methylpurine ribonucleoside (MESG) is catalytically converted to 2-amino-6-mercapto-7-methylpurine in the presence of inorganic phosphate (Pi). One molecule of Pi will yield one molecule of 2-amino-6-mercapto-7-methylpurine in an essentially irreversible reaction.
All experiments were performed at 22° C.
Condition 1, compound preparation.
The compounds were dissolved in DMSO at 30× the maximum concentration to be tested. […] DMSO solutions were pipetted directly into each well.
Condition 2, reaction's “motor mix”.
The following were mixed sequentially in the specified order at RT to obtain the “motor mix”.
20 mL: 15 mM Pipes-NaOH pH 7.0, 10 mM MgCl2, 30 μM Tx (Buffer 1).
10 mL: 5× MSEG (ELIPA 1 reagent, Cat. # BK051).
10 mL: 2.5 mg/mL porcine brain microtubules (3×10 mg Cat. # MT002-XL resuspended in 12 mL of Buffer 1).
0.5 mL: 100×PNP (ELIPA 2 reagent, cat. # BK051).
Condition 3, reaction initiation.
The motor mix was pipetted into each well to obtain 80% of total volume. The reaction was initiated by adding a 20% of total volume of 5 mM ATP into each well.
The reactions were measured in a SpectraMax M2 (Molecular Devices) set in kinetic mode and 360 nm absorbance wavelength. The start protocol was 5 second rapid circular mixing, 21 readings, 30 seconds apart.

The next test concerns K562 cells. The test is described as follows: Cytotoxicity on human cancer cells (WST-1), K562. The class given is cell-based. As for the experimental part: Evaluation of Cytotoxicity Effects on Human Cancer Cells
The effects of the compounds of the invention on the viability of human cancer cells were studied on various human cancer cell lines of differing tissue origins (A549, NCI-H460: lung cancer; MDA-MB-231: breast cancer; HCT-116, HT-29: colon cancer; MIA-PaCa-2: pancreatic cancer; K562: leukaemia). All cell lines were obtained from ATCC or ECACC. Cells were cultured in the culture media described below, under a 37° C., 5% CO2 humidified atmosphere, according to a standard operating procedure.
On D0, the cells were plated in 90 μl in 96 wells plates at densities ranging from 500 to 5,000 cells per well.
Following addition of the test substance the cells were protected from light. The solvents (DMSO and specific control solvent were added at the maximal concentration: 10 μl/well (3 wells/condition)).
On D4, the Cell Proliferation Reagent WST-1 was added to each well (10 μl/well), according to a standard operating procedure. The cells were then incubated for 30 min to 4 h at 37° C.-5% CO2. After these incubations, the 96-well plates were shaken thoroughly for 1 min with Multiskan® EX apparatus (Thermo Labsystems, France). The absorbence was measured at 450 nm, the reference wavelength being 620 nm. The analysis of the results was performed with the Ascent software 2.6 (Thermo Labsystems, France), Microsoft Excel 2003 and GraphPad Prism 4.03 softwares to give the concentration of the compounds that induces the death of 50% of the cells (IC50).

Where [2] appears, read: Table 6 (prodrugs, formula II), read-out: MKIp2 IC50.
Where [3] appears, read: Table 6 (prodrugs, formula II), K562 cells, WST-1 on D4, read-out: K562 IC50.
Setting [4] is: Table 3, 22° C., read-out: MKIp2 IC50.
The mark [5] stands for this setting: Table 4, K562 leukaemia cells, WST-1 on D4, read-out: K562 IC50.
The mark [6] stands for this setting: MKIp2 IC50 (μM), Table 3, 22° C.

For the compound `COc1ccncc1/C=C(\C#N)c1cn(C(C)=O)c2ccc(Br)cc12` [Example 55, (Z)-2-(1-acetyl-5-bromo-1H-indol-3-yl)-3-(4-methoxypyridin-3-yl)acrylonitrile], the IC50 turned out to be 13.7 µM in test [1] (setting [2]) and 0.55 µM with K562 cells (setting [3]).
In the case of `COc1ccc2c(/C(C#N)=C/c3cc(C#N)ccc3OC)c[nH]c2c1` [Example 54, (Z)-3-(2-cyano-2-(6-methoxy-1H-indol-3-yl)vinyl)-4-methoxybenzonitrile], the IC50 in test [1] (setting [4]) came to 1.4 µM; with K562 cells (setting [5]), 0.02 µM.
For the compound `N#C/C(=C\c1cc(C#N)ccc1OC(F)(F)F)c1c[nH]c2ccc(Br)cc12` [Example 53, (Z)-3-(2-(5-bromo-1H-indol-3-yl)-2-cyanovinyl)-4-(trifluoromethoxy)benzonitrile], the IC50 with K562 cells (setting [5]) turned out to be 0.38 µM.
With `N#C/C(=C\c1cc(C#N)ccc1O)c1c[nH]c2ccc(Br)cc12` [Example 51, (Z)-3-(2-(5-bromo-1H-indol-3-yl)-2-cyanovinyl)-4-hydroxybenzonitrile], in the test on K562 cells (setting [5]), the IC50 came to 0.5 µM.
For `COc1ccc(C#N)cc1/C=C(\C#N)c1cn(C(=O)C(C)(C)C)c2ccc(Br)cc12` [Example 58, (Z)-3-(2-(5-bromo-1-pivaloyl-1H-indol-3-yl)-2-cyanovinyl)-4-methoxybenzonitrile], the IC50 in test [1] (setting [2]) came to 7.5 µM; in the test on K562 cells (setting [3]), 0.06 µM.
For `COc1ccc(C#N)cc1/C=C(\C#N)c1cn(C(=O)[C@@H](N)CO)c2ccc(Br)cc12` [Example 74, (S,Z)-3-(2-(1-(2-amino-3-hydroxypropanoyl)-5-bromo-1H-indol-3-yl)-2-cyanovinyl)-4-methoxybenzonitrile hydrochloride], the half-inhibitory concentration (IC50) was determined as 2.1 µM in test [1] (setting [2]) and 0.01 µM with K562 cells (setting [3]).
For the compound `COc1ccc(C#N)cc1/C=C(\C#N)c1cn(C(=O)CC(NC(=O)OC(C)(C)C)C(=O)OCc2ccccc2)c2ccc(Br)cc12` (stereo in doubt) [Example 65, (R,Z)-benzyl-4-(5-bromo-3-(1-cyano-2-(5-cyano-2-methoxyphenyl)vinyl)-1H-indol-1-yl)-2-(tert-butoxycarbonylamino)-4-oxobutanoate], the concentration for half-maximal inhibition (IC50) in test [1] (setting [2]) amounted to 10.1 µM; in the test with K562 cells (setting [3]), 0.04 µM.
Turning to `CN(C)c1ccncc1/C=C(\C#N)c1c[nH]c2ccc(Br)cc12` [Example 8, (Z)-2-(5-bromo-1H-indol-3-yl)-3-(4-(dimethylamino)pyridin-3-yl)acrylonitrile], the half-maximal inhibitory concentration (IC50) in test [1] (setting [4]) turned out to be 0.9 µM; in the test on K562 cells (setting [5]) it was 7.5 µM.
Take `COc1ccc(C#N)cc1/C=C(\C#N)c1cn(C(=O)OC(C)(C)C)c2ccc(Br)cc12` [Example 64, (Z)-tert-butyl 5-bromo-3-(1-cyano-2-(5-cyano-2-methoxyphenyl)vinyl)-1H-indole-1-carboxylate]: the concentration for half-maximal inhibition (IC50) in test [1] (setting [2]) came out at 19.6 µM; in the test with K562 cells (setting [3]), 0.24 µM.
For the compound `COc1ccncc1/C=C(/C#N)c1c[nH]c2ccc(Br)cc12` [Example 5b, (E)-2-(5-bromo-1H-indol-3-yl)-3-(4-methoxypyridin-3-yl)acrylonitrile], the IC50 in test [1] (setting [4]) stood at 0.61 µM; in the test on K562 cells (setting [5]), 3.92 µM.
For `COc1ccc(C#N)cc1/C=C(\C#N)c1cn(C(=O)CCOP(=O)(O)O)c2ccc(Br)cc12` [Example 79, (Z)-3-(5-bromo-3-(1-cyano-2-(5-cyano-2-methoxyphenyl)vinyl)-1H-indol-1-yl)-3-oxopropyl dihydrogen phosphate], the values for the 50% inhibitory concentration (IC50) (in test [1] (setting [2]); in the test with K562 cells (setting [3])) were more than 50 µM and 0.4 µM, respectively.
Consider `COc1ccncc1/C=C(\C#N)c1c[nH]c2ccc(Cl)cc12` [Example 9, (Z)-2-(5-chloro-1H-indol-3-yl)-3-(4-methoxypyridin-3-yl)acrylonitrile], for which the half-inhibitory concentration (IC50) in test [1] (setting [4]) is 0.1 µM; with K562 cells (setting [5]) it was 1.4 µM.
As to `N#C/C(=C\c1cnccc1Cl)c1c[nH]c2ccc(Cl)cc12` [Example 3, (Z)-2-(5-chloro-1H-indol-3-yl)-3-(4-chloropyridin-3-yl)acrylonitrile], the figures for the 50% inhibitory concentration (IC50) (in test [1] (setting [4]); in the test on K562 cells (setting [5])) were 0.8 µM and 3.6 µM, respectively.
`COc1ccc(C#N)cc1/C=C(\C#N)c1cn(C(=O)C[C@H](C)N)c2ccc(Br)cc12` [Example 70, (S,Z)-3-(2-(1-(3-aminobutanoyl)-5-bromo-1H-indol-3-yl)-2-cyanovinyl)-4-methoxybenzonitrile hydrochloride]: the IC50 in test [1] (setting [2]) is more than 50 µM; with K562 cells (setting [3]), 0.01 µM.
Consider `N#C/C(=C\c1cc(C#N)ccc1OC(F)(F)F)c1c[nH]c2ccc(Cl)cc12` [Example 52, (Z)-3-(2-(5-chloro-1H-indol-3-yl)-2-cyanovinyl)-4-(trifluoromethoxy)benzonitrile], for which the half-inhibitory concentration (IC50) in the test on K562 cells (setting [5]) was 0.85 µM.
The same measure, in the same setting: to `N#C/C(=C\c1cnccc1O)c1c[nH]c2ccc(Cl)cc12` [Example 50, (Z)-2-(5-chloro-1H-indol-3-yl)-3-(4-hydroxypyridin-3-yl)acrylonitrile] belongs 14.7 µM.
For `COc1ccncc1/C=C(\C#N)c1cn(C(=O)OCCN2CCN(C)CC2)c2ccc(Br)cc12` [Example 62, (Z)-2-(4-methylpiperazin-1-yl)ethyl 5-bromo-3-(1-cyano-2-(4-methoxypyridin-3-yl)vinyl)-1H-indole-1-carboxylate], the 50% inhibitory concentration (IC50) in test [1] (setting [4]) turned out to be 0.35 µM.
Consider `COc1ccc(C#N)cc1/C=C(\C#N)c1c[nH]c2ccc(Cl)cc12` [Example 40, (Z)-3-(2-(5-chloro-1H-indol-3-yl)-2-cyanovinyl)-4-methoxybenzonitrile], for which, in test [1] (setting [4]), the IC50 turned out to be 0.2 µM.
Turning to `N#C/C(=C\c1cnccc1Oc1ccc(F)cc1)c1c[nH]c2ccc(Cl)cc12` [Example 23, (Z)-2-(5-chloro-1H-indol-3-yl)-3-(4-(4-fluorophenoxy)pyridin-3-yl)acrylonitrile], in test [1] (setting [4]), the IC50 was 0.09 µM.
As for `N#CC(=Cc1cccnc1)c1c[nH]c2ccc(Cl)cc12` [W02010/150211-Example 24, reference compound], the IC50 in test [1] (setting [6]) stood at 1.1 µM.
As for `N#C/C(=C\c1cnccc1Sc1ccc(F)cc1)c1c[nH]c2ccc(Br)cc12` [Example 28, (Z)-2-(5-bromo-1H-indol-3-yl)-3-(4-((4-fluorophenyl)thio)pyridin-3-yl)acrylonitrile], the IC50 in test [1] (setting [4]) was determined as 0.09 µM.
With `N#C/C(=C\c1cnccc1-n1cncn1)c1c[nH]c2ccc(Br)cc12` [Example 32, (Z)-3-(4-(1H-1,2,4-triazol-1-yl)pyridin-3-yl)-2-(5-bromo-1H-indol-3-yl)acrylonitrile], the concentration for half-maximal inhibition (IC50) in test [1] (setting [4]) was determined as 0.06 µM.
Consider `COc1ccc2[nH]cc(C(C#N)=Cc3ccc(OC)nc3)c2c1` [W02010/150211-Example 52, reference compound], for which the IC50 in test [1] (setting [6]) is 12.6 µM.
On to `COc1ccncc1/C=C(\C#N)c1c[nH]c2cc(F)ccc12` [Example 46, (Z)-2-(6-fluoro-1H-indol-3-yl)-3-(4-methoxypyridin-3-yl)acrylonitrile], for which the half-inhibitory concentration (IC50) in test [1] (setting [4]) stood at 0.12 µM.
Regarding `N#CC(=Cc1cccnc1)c1c[nH]c2ccccc12` [W02010/150211-Example 1, reference compound], the 50% inhibitory concentration (IC50) with K562 cells (K562, read-out: K562 IC50 (μM)) is 21.4 µM.
